From patent US8440423B2, “Bioremediation of nanomaterials” (U.S. Department of Energy, priority 2007, dated 2013)

Columns and labels:
[1] = test system: Escherichia coli W3110; test: Growth of E. coli W3110 in minimal [3-13C]L-lactate medium with nanoparticles added (OD600); type: cell-based
Description: (§1) Tracer Experiments. Shewanella oneidensis MR-1 and Escherichia coli W3110 were cultured in minimal medium (described in Tang, Y. J. J.; Laidlaw, D.; Gani, K.; Keasling, J. D. Biotechnology and Bioengineering 2006, 95, (1), 176-184) and hereby incorporated by reference). The medium was supplied with 30 mM (98% [3-^13C]L-lactate) (Cambridge Isotope, USA) as the sole carbon source to support cell growth. The inoculum was prepared in LB medium, which was grown overnight. This culture was inoculated into the minimal medium with a 0.09% inoculation volume. Both S. oneidensis and E. coli were cultured in shake flasks at 30° C. (at 200 rpm in dark). The fullerene compounds (C60, C60—OH, C60—COOH and C60-NH2) were added to the medium to different final concentrations (from 1 mg/L to 80 mg/L) before the exponential phase (OD600=0.09˜0.10). The culture's optical density at a wavelength of 600 nm (OD600) was measured in a spectrophotometer (DU®640, Beckman Instruments, Palo Alto, Calif.) every 2-3 hours. The carbon source (lactate) concentrations at each time point were determined using an enzyme test kit (r-Biopharm Inc., Darmstadt, Germany).
We used minimal medium containing [3-^13C]L-lactate to grow both organisms and test the impact of fullerenes (concentrations range from 0˜80 mg/l) on their growth. […]

[2] = Solubility in water; type: physicochemical
[3] = test system: Shewanella oneidensis MR-1; test: Growth of S. oneidensis MR-1 in minimal [3-13C]L-lactate medium with nanoparticles added (OD600); type: cell-based
Description: as §1
We used minimal medium containing [3-^13C]L-lactate to grow both organisms and test the impact of fullerenes (concentrations range from 0˜80 mg/l) on their growth. Since C60 is not soluble in water and cannot be uniformly suspended in the culture solution, we only applied concentrations less than 20 mg/L in the studies of non-derivatized C60.

[4] = test system: E. coli, and B. subtilis; settings: up to 5 mg/L; cited from earlier work
[5] = test system: 22 collection strains including E coli, B. subtilis, etc.; settings: ~43 mg/L; cited from earlier work
[6] = test system: mouse skin; settings: repeating subchronic topical dose on mouse skin for up to 24 weeks; cited from earlier work

c12c3c4c5c1c1c6c7c2c2c8c3c3c9c4c4c%10c5c5c1c1c6c6c%11c7c2c2c7c8c3c3c8c9c4c4c9c%10c5c5c1c1c6c6c%11c2c2c7c3c3c8c4c4c9c5c1c1c6c2c3c41 [C60, C60 fullerene]
E. coli growth course after addition of nanoparticles ([1]; 20 mg/L and 40 mg/L, FIG. 4a): slowed after addition of nanoparticles, then resumed their normal growth rate | E. coli growth inhibition ([1]; concentrations up to 80 mg/L (C60 less than 20 mg/L), FIG. 3a): did not significantly inhibit | solubility in water [2]: not soluble | effect on S. oneidensis MR-1 (growth), summary statement [3]: mild negative effects | S. oneidensis growth course after addition of nanoparticles ([3]; 20 mg/L and 40 mg/L, FIG. 4b): slowed after addition of nanoparticles, then resumed their normal growth rate | S. oneidensis growth inhibition ([3]; concentrations up to 80 mg/L (C60 less than 20 mg/L), FIG. 3b): did not significantly inhibit | Conclusions: effect on growth of prokaryotic microorganisms [4]: inhibitory to | Conclusions: effect on 22 collection strains [5]: No effect | carcinogenicity [6]: non-carcinogenic
